Converted amounts (≈) assume the structure as drawn. Read-outs that look alike come from different tables or passages of the source.
Experiments:
Ovcar-3 = settings: BLU-222: based on Ovcar-3 cell cycle data (maximum G1 arrest); read-out: Cellular IC50; cited from earlier work
[1] = Organic solubility of INX-315 by visual inspection; format: physicochemical; set-up: key to Soluble at 4 wt % / Soluble at 2 wt % / Soluble at 1 wt % / Soluble at 0.5 wt % / Soluble at 0.4 wt % / Soluble at 0.25 wt %: ✓, soluble; X, insoluble
[2] = Toxicity and toxicokinetics studies, rat; format: in vivo, Sprague Dawley rats
Protocol: (§1) Nominal dose values and sampling times were used for calculations. Any concentration reported as BLQ (LLOQ<1.0 ng/mL) was set equal to zero. Toxicokinetic analyses included Cmax, Tmax, AUC0-24, t1/2, RA Cmax, and RA AUC0-24.
(§2) Following this, human dose exposure was simulated using a combined whole blood and plasma compartment PK model using allometry and whole blood parameter estimates for the absorption rate constants and bioavailability per animal species. Absolute dose administration was used for modeling. V1, CL, V2, and Q parameters were extrapolated to human using allometric scaling. CL, Q by exponent equaled 0.818. V1, V2 by exponent equaled 1.03. Human body weight was set to 75 kg. Absorption rate constant (KA) was in reasonable ranges in mouse, rat, and dog, with values of 0.44, 0.53, and 0.18 (1/hr), respectively.
All INX-315 tablets were taken at approximately the same time(s) each day.

[3] = Toxicity and toxicokinetics studies, mouse; format: in vivo, mice
Protocol: as §1, §2

[4] = system: recurrent advanced/metastatic cancer; assay: First-in-human clinical study: preliminary antitumor activity; format: in vivo
Protocol: Cohort 1 enrollment of 6 subjects dosed at 100 mg oral QD was completed in October of 2023.

[5] = Plasma protein binding, mouse; format: in vitro ADME
Source text: (§3) Additionally, the whole blood-to-plasma ratio (KWB/P) in humans is 6.20, which also exceeds the other species tested (Table 7).

[6] = Plasma protein binding, dog; format: in vitro ADME
Source text: as §3

[7] = system: ST4316B ER+, CDK4/6 inhibitor-resistant breast PDX model; assay: ST4316B ER+, CDK4/6 inhibitor-resistant breast PDX model; format: in vivo, athymic nude mice
Protocol: Athymic nude, outbread homozygous (Crl:NU(NCr)-Foxnl^nu) 6-12-week-old ST4316B [HX] mice were analyzed. Tumor fragments from ST4316B were harvested from host animals and implanted into immune-deficient mice and the study initiated at a mean tumor volume of approximately 150-300 mm^3. […] Data collected from this study included animal weights, observations, and tumor dimensions. This information was used to determine agent tolerability based on weight change and gross physiologic changes; and anticancer activity based on tumor growth inhibition or regression. […]

[8] = Aqueous solubility of INX-315; format: physicochemical
[9] = Plasma protein binding, rat; format: in vitro ADME
Source text: as §3

CDK2/cyclin E = CDK2/cyclin E (Homo sapiens, UniProt P24941); settings: intracellular; read-out: Nanobret IC50 CDK2/cyclin E; cited from earlier work
[10] = Cohort 1, 100 mg QD, 6 subjects

In the case of `NS(=O)(=O)c1ccc(Nc2ncc3cc4n(c3n2)C2(CCCCC2)C(=O)NN4)cc1` [INX-315], the IC50 (Ovcar-3) is given as under 100 nM, the “Soluble at 0.25 wt %” value ([1]; 1:9 DMSO:H2O) is given as “X” and the “Soluble at 0.4 wt %” value ([1]; 1:9 DMSO:H2O) is given as “X”. The “Soluble at 0.5 wt %” value ([1]; 1:9 DMSO:H2O) was “X”, the “Soluble at 1 wt %” value ([1]; 1:9 DMSO:H2O) was “X” and the “Soluble at 2 wt %” value ([1]; 1:9 DMSO:H2O) was “X”. For the same compound, the “Soluble at 4 wt %” value ([1]; 1:9 DMSO:H2O) was “X”, the “Soluble at 0.25 wt %” value ([1]; 3:1 DCM:MeOH) was “X” and the “Soluble at 0.4 wt %” value ([1]; 3:1 DCM:MeOH) was “X”. The “Soluble at 0.5 wt %” value ([1]; 3:1 DCM:MeOH) was “X”, the “Soluble at 1 wt %” value ([1]; 3:1 DCM:MeOH) was “X” and the “Soluble at 2 wt %” value ([1]; 3:1 DCM:MeOH) was “X”. The “Soluble at 4 wt %” value ([1]; 3:1 DCM:MeOH) was “X”, the “Soluble at 0.25 wt %” value ([1]; 4:1 ACN:H2O) was “X” and the “Soluble at 0.4 wt %” value ([1]; 4:1 ACN:H2O) was “X”. The “Soluble at 0.5 wt %” value ([1]; 4:1 ACN:H2O) was “X”, the “Soluble at 1 wt %” value ([1]; 4:1 ACN:H2O) was “X” and the “Soluble at 2 wt %” value ([1]; 4:1 ACN:H2O) was “X”. For the same compound, the “Soluble at 4 wt %” value ([1]; 4:1 ACN:H2O) was “X”, the “Soluble at 0.25 wt %” value ([1]; 4:1 THF:H2O) was “✓” and the “Soluble at 0.4 wt %” value ([1]; 4:1 THF:H2O) was “✓”. The “Soluble at 0.5 wt %” value ([1]; 4:1 THF:H2O) was “✓”, the “Soluble at 1 wt %” value ([1]; 4:1 THF:H2O) was “✓” and the “Soluble at 2 wt %” value ([1]; 4:1 THF:H2O) was “✓”. The “Soluble at 4 wt %” value ([1]; 4:1 THF:H2O) was “✓”, the “Soluble at 0.25 wt %” value ([1]; 5:1 DCM:H2O) was “X” and the “Soluble at 0.4 wt %” value ([1]; 5:1 DCM:H2O) was “X”. The “Soluble at 0.5 wt %” value ([1]; 5:1 DCM:H2O) was “X”, the “Soluble at 1 wt %” value ([1]; 5:1 DCM:H2O) was “X” and the “Soluble at 2 wt %” value ([1]; 5:1 DCM:H2O) was “X”. For the same compound, the “Soluble at 4 wt %” value ([1]; 5:1 DCM:H2O) was “X”, the “Soluble at 0.25 wt %” value ([1]; 8:2 Acetone:H2O) was “✓” and the “Soluble at 0.4 wt %” value ([1]; 8:2 Acetone:H2O) was “✓”. The “Soluble at 0.5 wt %” value ([1]; 8:2 Acetone:H2O) was “X”, the “Soluble at 1 wt %” value ([1]; 8:2 Acetone:H2O) was “X” and the “Soluble at 2 wt %” value ([1]; 8:2 Acetone:H2O) was “X”. For the same compound, the “Soluble at 4 wt %” value ([1]; 8:2 Acetone:H2O) was “X”, the “Organic solubility (soluble up to)” value ([1]; 9:1 ACN:H2O) was “up to 0.5 wt %” and the “Soluble at 0.25 wt %” value ([1]; 9:1 ACN:H2O) was “✓”. For the same compound, the “Soluble at 0.4 wt %” value ([1]; 9:1 ACN:H2O) was “✓”, the “Soluble at 0.5 wt %” value ([1]; 9:1 ACN:H2O) was “✓” and the “Soluble at 1 wt %” value ([1]; 9:1 ACN:H2O) was “X”. The “Soluble at 2 wt %” value ([1]; 9:1 ACN:H2O) was “X”, the “Soluble at 4 wt %” value ([1]; 9:1 ACN:H2O) was “X” and the “Soluble at 0.25 wt %” value ([1]; 9:1 Acetone:H2O) was “✓”. The “Soluble at 0.4 wt %” value ([1]; 9:1 Acetone:H2O) was “✓”, the “Soluble at 0.5 wt %” value ([1]; 9:1 Acetone:H2O) was “X” and the “Soluble at 1 wt %” value ([1]; 9:1 Acetone:H2O) was “X”. The “Soluble at 2 wt %” value ([1]; 9:1 Acetone:H2O) was “X”, the “Soluble at 4 wt %” value ([1]; 9:1 Acetone:H2O) was “X” and the “Organic solubility (soluble up to)” value ([1]; Acetone) was “up to 0.5 wt %”. For the same compound, the “Soluble at 0.25 wt %” value ([1]; Acetone) was “✓”, the “Soluble at 0.4 wt %” value ([1]; Acetone) was “✓” and the “Soluble at 0.5 wt %” value ([1]; Acetone) was “✓”. For the same compound, the “Soluble at 1 wt %” value ([1]; Acetone) was “X”, the “Soluble at 2 wt %” value ([1]; Acetone) was “X” and the “Soluble at 4 wt %” value ([1]; Acetone) was “X”. The “Soluble at 0.25 wt %” value ([1]; Methanol) was “✓”, the “Soluble at 0.4 wt %” value ([1]; Methanol) was “X” and the “Soluble at 0.5 wt %” value ([1]; Methanol) was “X”. For the same compound, the “Soluble at 1 wt %” value ([1]; Methanol) was “X”, the “Soluble at 2 wt %” value ([1]; Methanol) was “X” and the “Soluble at 4 wt %” value ([1]; Methanol) was “X”. The bioavailability ([2]; both sexes, Sprague Dawley, rat, in vivo, po) was 8%, the “Absorption rate constant (KA)” value ([2]; both, Sprague Dawley, rat, in vivo) was 0.53 h⁻¹ and the “human equivalent dose (HED) of the no observed adverse effect level (NOAEL)” value ([2]; rats) was 9730 mg/day. The “safety margin of 100 mg QD starting dose vs HED of NOAEL” value ([2]; rats) was 97 fold, the “Absorption rate constant (KA)” value ([3]; model parameter estimate) was 0.44 h⁻¹ and the bioavailability ([3]; whole blood, po, read-out: Bioavailability (F1)) was 62%. The “partial response (PR) subjects” value [4, 10] was 1 subjects, the “progressive disease (PD) subjects” value [4, 10] was 2 subjects and the “stable disease (SD) subjects” value [4, 10] was 3 subjects. For the same compound, the response ([4]; Subject 101-001 (ER+/HER2− breast cancer), 100 mg QD) was “confirmed PR”, the “decrease in TL” value ([4]; Subject 201-001, end of Cycle 2, 100 mg QD) was 10% and the fraction unbound [5] was 0.023. The fraction unbound [6] was 0.04, the “tumor growth inhibition versus control” value ([7]; Day 31, INX-315 100 mg/kg BID + ribociclib 50 mg/kg QD, p=0.0033) was “statistically significant tumor growth inhibition” and the “tumor growth inhibition percentage (TGI %)” value ([7]; Day 45, INX-315 100 mg/kg BID + ribociclib 50 mg/kg QD (Group 8), p<0.0002) was 65%. The solubility ([8]; 0.01 N HCl, simulated gastric fluid, 0.01N HCl, read-out: Dissolved Drug Solubility) was 0.269 ± 0.092 mg/mL (≈ 629 µM), the solubility ([8]; 50 mM Na acetate, aqueous buffer, 50 mM Na Acetate, read-out: Total Drug Solubility) was 0.019 ± 0.007 mg/mL (≈ 44.4 µM) and the solubility ([8]; 0.224% SIF in PBS, fassif, 0.224% SIF in PBS, read-out: Dissolved Drug Solubility) was 0.0053 ± 0.0004 mg/mL (≈ 12.4 µM). For the same compound, the solubility ([8]; 0.224% SIF in PBS, fassif, 0.224% SIF in PBS, read-out: Total Drug Solubility) was 0.0061 ± 0.0004 mg/mL (≈ 14.3 µM), the solubility ([8]; 0.5% SIF in PBS, fassgf or other biorelevant, 0.5% SIF in PBS, read-out: Dissolved Drug Solubility) was 0.011 ± 0.001 mg/mL (≈ 25.7 µM) and the solubility ([8]; 0.5% SIF in PBS, fassgf or other biorelevant, 0.5% SIF in PBS, read-out: Total Drug Solubility) was 0.015 ± 0.0002 mg/mL (≈ 35.1 µM). For the same compound, the solubility ([8]; 0.5% Tween-80 in PBS, aqueous with cosolvent or surfactant or cyclodextrin, 0.5% Tween-80 in PBS, read-out: Dissolved Drug Solubility) was 0.059 ± 0.008 mg/mL (≈ 138 µM), the solubility ([8]; 0.5% Tween-80 in PBS, aqueous with cosolvent or surfactant or cyclodextrin, 0.5% Tween-80 in PBS, read-out: Total Drug Solubility) was 0.055 ± 0.001 mg/mL (≈ 129 µM) and the solubility ([8]; 1% SIF in PBS, fassgf or other biorelevant, 1% SIF in PBS, read-out: Dissolved Drug Solubility) was 0.0163 ± 0.0001 mg/mL (≈ 38.1 µM). It also gave a solubility ([8]; 1% SIF in PBS, fassgf or other biorelevant, 1% SIF in PBS, read-out: Total Drug Solubility) of 0.0164 ± 0.0001 mg/mL (≈ 38.4 µM), a solubility ([8]; 1% SLS in water, aqueous with cosolvent or surfactant or cyclodextrin, 1% SLS in H2O, read-out: Dissolved Drug Solubility) of 0.04 ± 0.001 mg/mL (≈ 93.6 µM) and a solubility ([8]; 5% TPGS in PBS, aqueous with cosolvent or surfactant or cyclodextrin, 5% TPGS in PBS, read-out: Dissolved Drug Solubility) of 0.313 ± 0.021 mg/mL (≈ 732 µM). The solubility ([8]; 5% TPGS in PBS, aqueous with cosolvent or surfactant or cyclodextrin, 5% TPGS in PBS, read-out: Total Drug Solubility) was 0.305 ± 0.01 mg/mL (≈ 713 µM), the solubility ([8]; PBS/Blank FaSSIF, aqueous buffer, PBS/Blank FaSSIF, read-out: Total Drug Solubility) was 0.017 ± 0.002 mg/mL (≈ 39.8 µM) and the BCS classification ([8]; high permeability, low solubility) was “BCS-2”. The solubility ([8]; water, H2O, read-out: Total Drug Solubility) was 0.061 ± 0.014 mg/mL (≈ 143 µM), the fraction unbound [9] was 0.018 and the IC50 (CDK2/cyclin E) was 2 nM.

— patent US20260041640A1 (INCYCLIX BIO, LLC, priority 2023, published 2026)
